Test results taken from patent publication US7232831B2, “Tetrahydro-β-carboline compounds and use thereof” (MediQuest Therapeutics, Inc., priority 2004, dated 2007).

Tested on: rats
Test: Forced Swimming Test (Depression Test Model)
Format: in vivo
Conditions: delivered orally before swim test, all three doses 0.3, 3 and 30 mg/kg, observed for 6 minutes
Source text: Forced Swimming Test (Depression Test Model)—Total immobility time of rats can be assessed during a forced swimming test Porsolt, R. D., Anton, G., Blavet, N., Jalfre, M. Behavioral despair in rats, a new model sensitive to antidepressant treatments. Eur. J Pharmacol. 1978, 47, 379-391. A shortened immobility period reflects anti-depressant-like effects of a test compound. MQT compounds were delivered orally to rats before the swim test.

SMILES	Total immobility time during forced swimming test
NCCCNC(=O)C1CCCN(C(=O)C2Cc3c([nH]c4ccccc34)CN2)C1 (centres unmarked) [MQT 1]	reduction in immobility
NCCCNCC1CCCN(CC2Cc3c([nH]c4ccccc34)CN2)C1 (centres unmarked) [MQT 2]	reduction in immobility
